Data set [1] has as its system recombinant single and cis mutant PI3Kα complexes. As to the kind of experiment: IC50 determination of recombinant PI3K (Transcreener ADP2 fluorescence intensity assay). As to conditions: among the recombinant single and cis mutant PI3Kα complexes.
Data set [2] deals with PIK3CA mutant MCF10A cells. Nature of the data set: Cell viability / cell inhibition by PI3K inhibitors (CellTiter-Glo, dose-response survival). As to conditions: for sensitivity of cell growth to PI3Kα inhibition: E545K and H1047R major hotspot mutants compared to minor mutants and WT.
Data set [3] relates to PI3K pathway signaling in PIK3CA mutant NIH-3T3 cells. Nature of the data set: Western blotting of PI3K effectors, NIH-3T3 cells. Particulars: BYL719 1 μM, 24 hours, serum starvation, vs single mutant cells. The class given is cell-based, mouse.
Data set [4] deals with ER+ metastatic breast cancer. Nature of the data set: Phase 1 clinical trial NCT01870505 of alpelisib (BYL719) plus aromatase inhibitor, PFS analysis. It is filed as in vivo, human. As to conditions: with an aromatase inhibitor; for progression free survival: tumor NGS (FIG. 18C); for PFS (duration of response to PI3K inhibition): tumor and ctDNA NGS (FIG. 17E). The protocol: Progression-free survival analysis was performed on patients enrolled in NCT01870505, a phase I clinical trial of BYL719 (alpelisib) plus letrozole or exemestane for patients (n=51) with hormone-receptor positive locally-advanced unresectable or metastatic breast cancer. 44/51 patients were analyzed for NGS of their tumors (MSK-IMPACT) and/or NGS of their ctDNA (Guardant) and were included in the analysis. Progression free survival was calculated and was compared between dual and single mutant patients. Clinical benefit rates (complete response, partial response or stable disease) were calculated and were compared between dual and single mutant patients using Fisher's exact test.
(§1) Retrospective PFS analysis was performed on tumors from a large breast cancer dataset (n=1918) sequenced by MSK-IMPACT ((Razavi et al., Cancer Cell 34, 427-438 e426 (2018)). Tumors were included in analysis if both pre- and post-endocrine therapy (aromatase inhibitor or fulvestrant) biopsies confirmed WT, single PIK3CA mutation, or multiple PIK3CA mutations. Kaplan-Meier curves were generated for PFS after firstline aromatase inhibitor or firstline fulvestrant therapy. PFS analysis was performed on patients enrolled in NCT01870505, a phase 1 clinical trial of alpelisib plus letrozole or exemestane for patients with hormone-receptor positive locally-advanced unresectable or metastatic breast cancer. 46/51 patients had biopsy samples that confirmed PIK3CA mutant or WT alleles by tumor NGS, and these 46 patients were included in the final analysis.

Data set [5] concerns PI3K pathway signaling in PIK3CA mutant MCF10A cells. Nature of the data set: Western blotting of PI3K effectors, MCF10A cells. Particulars: BYL719 1 μM, 24 hours, serum starvation, vs single mutant cells.
Data set [6] has as its system PIK3CA mutant and WT breast cancers. As to the kind of experiment: Retrospective PFS analysis on endocrine therapy (aromatase inhibitor or fulvestrant). The class given is in vivo, human. The protocol:
as §1

In data set [7] the test system is metastatic ER-positive PIK3CA mutant breast cancer. As to the kind of experiment: […] phase III clinical trial of taselisib with fulvestrant, ctDNA PIK3CA analysis. It is filed as in vivo, human. Particulars: for overall response rate: taselisib arm (with fulvestrant). From the text: The present disclosure investigated the effects of multiple PIK3CA mutations on clinical response to PI3Kα inhibitors in metastatic breast cancer. The present disclosure analyzed response data from […], a phase III registrational clinical trial that tested the efficacy of the PI3Kα inhibitor taselisib (GDC-0032), with fulvestrant (an estrogen receptor [ER] degrader) in metastatic ER-positive PIK3CA mutant breast cancer. This is the largest randomized clinical study testing a PI3Kα inhibitor (631 patients).
Many patients with metastatic ER-positive breast cancer enrolled in this trial had bone metastases, which must be decalcified to be analyzed by NGS, which render DNA sequencing particularly challenging (Singh et al., Ann Diagn Pathol 17, 322-326 (2013)). Thus, the present disclosure used circulating tumor DNA (ctDNA), which has been utilized in many breast cancer clinical trials (Baselga et al., Lancet Oncol 18, 904-916 (2017); Andre et al., N Engl J Med 380, 1929-1940 (2019); Baselga et al., N Engl J Med 366, 520-529 (2012); Turner et al., N Engl J Med 373, 209-219 (2015)), to detect the presence of multiple mutations. Of the 631 patients on the trial, 598 had plasma samples available for analysis, of which 508 were adequate for testing (FIG. 19A). Samples were tested using the Foundation One liquid assay, which sequences the entire PIK3CA gene. Of the 339 patients with detected PIK3CA mutations, 66 (19%) had 2 or more PIK3CA mutations.
For analysis of the […] clinical trial (Baselga, Journal of Clinical Oncology, 2018, 36, no. 18_suppl.) patient ctDNA samples (n=631), 508 patient samples met quality control parameters and were analyzed by Foundation Medicine One Liquid assay (Clark et al., J Mol Diagn 20, 686-702 (2018)) which sequences […] of PIK3CA and can detect mutations at amino acid positions 545, 1047, 453, 726, and 1043 (FIG. 24). 339 samples were identified with PIK3CA mutations, of which 66 contained two or more PIK3CA mutations. Patients with measurable disease from the ctDNA PIK3CA mutant cohort, on the taselisib arm, were analyzed based on the percentage change in the sum of longest diameter (SLD) of target lesion from baseline, and were tabulated by waterfall plot. Patients with both measurable and nonmeasurable disease from the ctDNA PIK3CA mutant cohort were assessed on the placebo and taselisib arms for overall response rate (defined as tumor shrinkage >30%). 95% CI for rates were constructed using the Blyth-Still-Casella method. The CI for the difference in ORRs between the two treatment arms were determined using the normal approximation to the binomial distribution. Response rates in the treatment arms were compared (p-value) using the stratified Cochran-Mantel-Haenszel test.

In data set [8] the target is p85α regulatory subunit of PI3Kα (PIK3R1), full length human, hexahistidine-tagged at the N-terminus (UniProt P27986).
p85α regulatory subunit of PI3Kα (PIK3R1), full length human, hexahistidine-tagged at the N-terminus, sequence (P27986 whole entry, looked up, tested part not stated): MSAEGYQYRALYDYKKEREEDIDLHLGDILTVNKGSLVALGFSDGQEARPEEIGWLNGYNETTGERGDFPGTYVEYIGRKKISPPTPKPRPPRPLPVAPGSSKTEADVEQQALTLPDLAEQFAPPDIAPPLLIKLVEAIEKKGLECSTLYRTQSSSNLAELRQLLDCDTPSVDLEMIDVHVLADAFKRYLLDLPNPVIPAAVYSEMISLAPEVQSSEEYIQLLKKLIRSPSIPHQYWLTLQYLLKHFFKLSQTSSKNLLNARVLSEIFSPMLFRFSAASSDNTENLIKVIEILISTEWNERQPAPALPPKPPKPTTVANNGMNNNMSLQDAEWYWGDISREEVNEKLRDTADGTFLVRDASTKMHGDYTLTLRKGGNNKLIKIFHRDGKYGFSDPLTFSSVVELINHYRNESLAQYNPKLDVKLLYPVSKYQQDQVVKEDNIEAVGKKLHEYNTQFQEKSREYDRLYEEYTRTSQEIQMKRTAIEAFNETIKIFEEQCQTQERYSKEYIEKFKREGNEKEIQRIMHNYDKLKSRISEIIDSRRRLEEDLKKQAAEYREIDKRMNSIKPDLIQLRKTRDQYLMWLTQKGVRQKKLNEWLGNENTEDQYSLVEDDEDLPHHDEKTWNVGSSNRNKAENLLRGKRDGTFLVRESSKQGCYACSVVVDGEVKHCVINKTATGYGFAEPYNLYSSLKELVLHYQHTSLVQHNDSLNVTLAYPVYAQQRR

As to `C[C@H](Nc1ccc2c(c1)OCCn1cc(N3C(=O)OC[C@H]3C(F)F)nc1-2)C(N)=O` [GDC-0077], the “IC50 values, recombinant PI3Kα complexes” value in data set [1] is “similar”. In addition, in data set [2] (MCF10A), the “sensitivity of cell growth to PI3Kα inhibition” value is “more sensitive”. Besides, the IC50 in data set [2] (read-out: IC50 [GDC-0077] of MCF10A E545K cells, MCF10A E545K cells, per FIG. 6G) was determined as 62.5 nM.
As to `Cc1nc(NC(=O)N2CCC[C@H]2C(N)=O)sc1-c1ccnc(C(C)(C)C(F)(F)F)c1` [alpelisib], the “compound mutant PI3K pathway signaling on PI3K inhibition” value in data set [3] and in data set [5] was “decreases to similar levels” each time. Besides, the progression free survival in data set [4] (WT PIK3CA tumors) stood at 7.5 weeks; in data set [4] (double PIK3CA mutant tumors) it was 48 weeks; in data set [4] (single PIK3CA mutant tumors), 20 weeks. For the same molecule, the “PFS (duration of response to PI3K inhibition)” value in data set [4] (dual PIK3CA mutant patients) stood at 48 weeks; in data set [4] (single PIK3CA mutant patients), 17 weeks. Besides, the “patients with clinical benefit rate >30 weeks” value came out at 67% in data set [4] (dual mutant tumors, p=0.044 vs single) and 23% in data set [4] (single mutant tumors). Moreover, the “median PFS, double mutant vs single mutant or WT tumors” value in data set [4] (not statistically significant) is listed as “longer median PFS”. Also, the “IC50 values, recombinant PI3Kα complexes” value in data set [1] is given as “similar”. In addition, the cell viability result in data set [2] (Example 1, compound PIK3CA mutants vs single mutants) is given as “more significant decrease in cell viability”. The “sensitivity of mutations in trans” value is “less sensitive” in data set [2] (MCF10A E726K/H1047R in trans compared to cis mutants) and “no more sensitive” in data set [2] (MCF10A E726K/H1047R in trans compared to the single major mutant). For the same molecule, the “sensitivity of cell growth to PI3Kα inhibition” value in data set [2] (MCF10A) was “more sensitive”. Also, the “fold of inhibition of cell growth” value in data set [2] (MCF10A, E545K- and H1047R-containing compound mutants vs single mutants) is recorded as “increased fold of inhibition”.
As for `CO[C@H]1C[C@@H]2CC[C@@H](C)[C@@](O)(O2)C(=O)C(=O)N2CCCC[C@H]2C(=O)O[C@H]([C@H](C)C[C@@H]2CC[C@@H](OCCO)[C@H](OC)C2)CC(=O)[C@H](C)/C=C(\C)[C@@H](O)[C@@H](OC)C(=O)[C@H](C)C[C@H](C)/C=C/C=C/C=C/1C` [everolimus], the “sensitivity to downstream PI3K pathway inhibitor” value in data set [2] (MCF10A, cis mutants compared to single mutants, serum starvation 4 days) was “more sensitive”.
Take `C[C@]12CC[C@@H]3c4ccc(O)cc4C[C@@H](CCCCCCCCC[S+]([O-])CCCC(F)(F)C(F)(F)F)[C@H]3[C@@H]1CC[C@@H]2O` (stereo partly drawn) [fulvestrant]: in data set [6] (fulvestrant), the “PFS of dual mutant patients vs patients with WT tumors” value is “worse PFS”. Also, the “PFS of patients with dual PIK3CA-mutant tumors vs single mutant or WT tumors” value in data set [6] (fulvestrant alone) is “do not have improved”.
Turning to `Cc1nc(-c2cn3c(n2)-c2ccc(-c4cnn(C(C)(C)C(N)=O)c4)cc2OCC3)n(C(C)C)n1` [taselisib], the overall response rate in data set [7] (ctDNA PIK3CA mutant total population) was 20.3%; in data set [7] (multiple ctDNA PIK3CA mutant subpopulation), 30.2%; in data set [7] (single ctDNA PIK3CA mutant subpopulation), 18.1%. Further, the “tumor shrinkage, multiple vs single mutant tumors” value in data set [7] (taselisib arm, waterfall plot (FIG. 19B)) was “tumor shrinkage more”.
As to “p110α E545K, untagged, full length human”, the “thermal shift assay (soluble p110α by Western blot across a temperature gradient)” value in data set [8] is listed as “Among single mutants, E545K is the most thermally unstable”.

For the origin of these results see patent US20210189503A1, “BIOMARKERS FOR DETERMINING RESPONSIVENESS OF A CANCER TO PI3K INHIBITORS” (MEMORIAL SLOAN-KETTERING CANCER CENTER, priority 2018, published 2021).
